Where a name gives a salt, the structure may show the parent alone.
Assay: RP, Waters ACQUITY UPLC BEH C18, 38 °C, 0.24 mL/min; A: water + 0.1% formic acid, pH 3; B: acetonitrile + 0.1% formic acid, pH 3; gradient (min/%B) 0/0 0.25/0 0.4/9 0.8/17 1.9/100 2.1/100 2.11/0 3/0
Conditions: stereoisomer not certain

Row | Structure (SMILES) | LC retention time [min]
1 | Cc1cc2nc3cc(C)c(N)cc3[n+](-c3ccccc3)c2cc1N [Safranine] | 1.57
2 | Nc1nc2c(ncn2C2CC(O)C(COP(=O)(O)O)O2)c(=O)[nH]1 (configuration not stated) [2'-deoxyguanosine 5'-monophosphate sodium salt hydrate] | 0.72
3 | OCC1OC(Oc2cc(O)cc(C=Cc3ccc(O)c(O)c3)c2)C(O)C(O)C1O (configuration not stated) [E-3,4,5'-trihydroxy-3'-glucopyranosylstilbene] | 1.33
4 | Cc1ncc(CO)c(CO)c1O [Pyridoxine] | 0.53
5 | OCC1OC(OCC2OC(O)(CO)C(O)C2O)C(O)C(O)C1O (configuration not stated) [Palatinose Monohydrate] | 0.19
6 | O=C1O[C@H]([C@@H](O)CO)C(O)=C1O [L-Ascorbic acid] | 1.15
7 | NC(CCC(=O)NC(CS)C(=O)O)C(=O)O (configuration not stated) [gamma-Glu-Cys] | 0.55
8 | CNCC(=O)O [Sarcosine] | 0.16
9 | CC(O)CN (stereo not drawn) [R-(-)-1-Amino-2-propanol] | 0.17
10 | Oc1cccnc1 [3-Hydroxypyridine] | 0.24
11 | O=S(=O)(O)CCN1CCN(CCS(=O)(=O)O)CC1 [PIPES] | 0.16
12 | O=[N+]([O-])c1ccc(OP(=O)(O)O)cc1 [4-Nitrophenyl phosphate disodium salt hexahydrate] | 0.92
13 | CC(=O)NC(CC(C)C)C(=O)NC(CC(C)C)C(=O)NC(C=O)CCCN=C(N)N (configuration not stated) [Leupeptin hemisulfate salt] | 1.42
14 | O=C(O)C(O)Cc1ccc(O)cc1 (racemic) [DL-p-Hydroxyphenyllactic acid] | 1.18
15 | CC(=O)N[C@@H]1C(O)O[C@H](CO)[C@@H](O)[C@@H]1O (stereo partly drawn) [N-acetyl-D-mannosamine] | 0.18
16 | C[n+]1cccc(C(=O)[O-])c1 [Trigonelline hydrochloride] | 0.19
17 | O=C(O)C1CCCCN1 (racemic) [DL-Pipecolinic acid] | 0.27
18 | Oc1cc(O)c2cc(OC3OCC(O)C(O)C3O)c(-c3ccc(O)c(O)c3)[o+]c2c1 (stereo not drawn) [Cyanidin-3-O-alpha-arabinopyranoside] | 1.23
19 | COc1ccc(-c2cc(=O)c3c(O)cc(OC4OC(COC5OC(C)C(O)C(O)C5O)C(O)C(O)C4O)cc3o2)cc1 (configuration not stated) [Linarin] | 1.54
20 | C[N+](C)(C)CCOP(=O)(O)OP(=O)([O-])OCC1OC(n2ccc(N)nc2=O)C(O)C1O (configuration not stated) | 0.2
21 | O=C1CC[C@@H](C(=O)O)N1 [L-Pyroglutamic acid] | 0.41
22 | CCCCCC1CCC(=O)O1 (configuration not stated) [4-Nonanolide] | 1.87

Row | Structure (SMILES) | LC retention time [min]
23 | O=C(O)[C@@H]1CCCN1 [L-Proline] | 0.19
24 | CC[C@H](N)C(=O)O [L-2-Aminobutyric acid] | 0.18
25 | N[C@H](CC(=O)O)Cc1ccccc1 [L-beta-Homophenylalanine hydrochloride] | 1.16
26 | OCC1OC(OC2C(CO)OC(O)(CO)C2O)C(O)C(O)C1O (configuration not stated) | 0.19
27 | COc1cc(-c2oc3cc(O)cc(O)c3c(=O)c2OC2OC(CO)C(O)C(O)C2O)cc(OC)c1O (configuration not stated) [syringetin-3-O-glucoside] | 1.45
28 | O=C(O)CCc1ccc(O)cc1 [3-(4-Hydroxyphenyl)-propionic acid] | 1.38
29 | CC(=O)OCC=C(C)CCC=C(C)CCC=C(C)C (mixture of isomers) [(cis,trans)-Farnesyl acetate] | 2
30 | NC(N)=NCCCC(N)C(=O)O (stereo not drawn) [L(+)-Arginine] | 0.16
31 | O=P(O)(O)OC1C(O)C(O)C(OP(=O)(O)O)C(O)C1O (configuration not stated) | 2.13
32 | NC(CCC(=O)NC(CSSCC(NC(=O)CCC(N)C(=O)O)C(=O)NCC(=O)O)C(=O)NCC(=O)O)C(=O)O (configuration not stated) [Glutathione (oxidized form)] | 0.95
33 | COc1cc(-c2oc3cc(O)cc(O)c3c(=O)c2O)ccc1O [Isorhamnetin] | 1.7
34 | O=S(=O)(O)Oc1c[nH]c2ccccc12 [3-Indoxylsulfate potassium salt] | 1.24
35 | N[C@@H](Cc1cnc[nH]1)C(=O)O [L-Histidine] | 0.15
36 | Cn1cncc1C[C@H](N)C(=O)O [3-Methyl-L-histidine] | 0.15
37 | CCC(C(=O)O)C(=O)O [Ethylmalonic acid] | 1.12
38 | Cc1ncc(CO)c(C=O)c1O [pyridoxal hydrochrolide] | 0.38
39 | O=C(O)C[C@@H]1CCCN1 [L-beta-homoproline-HCl] | 0.25
40 | c1ccc(NC[C@@H]2CCCN2)cc1 [(S)-(+)-2-(anilinomethyl)pyrrolidine] | 1.27
41 | CCC=CCC1C(=O)CCC1CC(=O)O (racemic) [(+-)-Jasmonic acid] | 1.68
42 | CCCCCCCCCCCCCCCCC [Heptadecane] | 1.81
43 | OCCN(CCO)CCO [2,2',2''-Nitrilotriethanol] | 0.17
44 | O=Cc1c[nH]c2ccccc12 [Indole-3-carboxyaldehyde] | 1.51

Row | Structure (SMILES) | LC retention time [min]
45 | Nc1nc2c(ncn2C2OC(CO)C(O)C2O)c(=O)[nH]1 (configuration not stated) [Guanosine] | 1.08
46 | O=C(O)C(=O)Cc1ccccc1 [Sodium phenylpyruvate] | 1.36
47 | N[C@@H](Cc1ccccc1)C(=O)O [L-(-)-Phenylalanine] | 1.09
48 | COc1ccc(-c2coc3cc(OC4OC(CO)C(O)C(O)C4O)ccc3c2=O)cc1 (configuration not stated) [Ononin] | 1.52
49 | Nc1ncnc2c1ncn2C1OC(CO)C(OP(=O)(O)O)C1O (configuration not stated) [Adenosine 3'-monophosphate From Yeast] | 0.64
50 | O=C(O)Cc1c[nH]c2ccc(O)cc12 [5-Hydroxyindole-3-acetate (5-HIAA)] | 1.27
51 | CC(=O)OCC[N+](C)(C)C [Acetylcholine chloride] | 0.24
52 | CC1CCC2(NC1)OC1CC3C4CC=C5CC(O)CCC5(C)C4CCC3(C)C1C2C (configuration not stated) [Solasodine] | 1.72
53 | O=C(O)C=Cc1cnc[nH]1 [urocanic acid] | 0.38
54 | CC(=O)NCCCCN [N-acetyl putrescine hydrochloride] | 0.23
55 | OCC1OC(Oc2cc3c(O)cc(O)cc3[o+]c2-c2cc(O)c(O)c(O)c2)C(O)C(O)C1O (stereo not drawn) [Delphinidin-3-O-beta-glucopyranoside] | 1.16
56 | CC(C(=O)O)C(=O)O [Methylmalonic acid] | 0.54
57 | COc1cc(CC(=O)O)ccc1O [Homovanillic acid] | 1.33
58 | C[C@@H](O)[C@H](N)CC(=O)O [L-beta-homothreonine] | 0.19
59 | CSCC[C@H](N)C(=O)O [L-Methionine] | 0.31
60 | O=C(O)C(O)Cc1ccccc1 (racemic) [DL-3-Phenyllactic acid] | 1.42
61 | NCCc1cnc[nH]1 [Histamine] | 0.14
62 | O=P(O)(O)O[C@H]1O[C@H](CO)[C@H](O)[C@H](O)[C@H]1O [alpha-D-Galactose-1-phosphate dipotassium salt pentahydrate] | 0.16
63 | N=c1nc(N2CCCCC2)cc(N)n1O [Minoxidil] | 1.32
64 | O=C1OC2C(O)C(O)OC2C1O [D-Glucurono-6,3-lactone] | 0.19
65 | CN1C2CCC1CC(=O)C2 [Tropinone] | 0.24
66 | NC(CCCC(N)C(=O)O)C(=O)O (racemic) [DL-alpha,epsilon-Diaminopimelic acid] | 0.15

Row | Structure (SMILES) | LC retention time [min]
67 | CC(=O)OCC1OC(Oc2c(-c3ccc(O)c(O)c3)oc3cc(O)cc(O)c3c2=O)C(O)C(O)C1O (configuration not stated) [Quercetin-3-O-glucose-6''-acetate] | 1.46
68 | NC(=O)c1ccc[n+](C2OC(COP(=O)([O-])O)C(O)C2O)c1 (stereo not drawn) [beta-Nicotinamide mononucleotide] | 0.24
69 | O=c1ccn(C2OC(COP(=O)(O)OP(=O)(O)OC3OCC(O)C(O)C3O)C(O)C2O)c(=O)[nH]1 (configuration not stated) [UDP-xylose] | 0.21
70 | CC(=O)NC(CO)C(=O)O (racemic) [N-acetyl-DL-serine] | 0.24
71 | Nc1ccccc1C(=O)CC(N)C(=O)O [L-Kynurenine] | 1.1
72 | NC(=O)CCCCC1CCSS1 (racemic) [DL-Thioctamide] | 1.57
73 | O=C(O)CCCCC1CCSS1 (racemic) [(+-)-alpha-Lipoic acid] | 1.74
74 | O=C(O)CCC(=O)O [Succinic acid] | 0.49
75 | CC(C)[C@H](N)C(=O)O [L-Valine] | 0.25
76 | NCCc1ccc(O)cc1 [Tyramine] | 0.67
77 | NCCOP(=O)(O)O [O-Phosphorylethanolamine] | 0.16
78 | CC1OC(O)C(O)C(O)C1O (configuration not stated) | 0.21
79 | NC(=O)CC[C@H](N)C(=O)O [L-Glutamine] | 0.17
80 | Nc1ncnc2c1ncn2C1OC(COP(=O)(O)O)C(O)C1O (configuration not stated) [Adenosine-5'-monophosphate sodium salt] | 0.39
81 | O=C1CC(c2ccc(O)c(O)c2)Oc2cc(O)cc(O)c21 (configuration not stated) [Eriodictyol] | 1.59
82 | Nc1ccn(C2OC3COP(=O)(O)OC3C2O)c(=O)n1 (configuration not stated) [Cytidine-3',5'-cyclicmonophosphate] | 0.67
83 | O=C(O)C=C(CC(=O)O)C(=O)O [trans-Aconitic acid] | 0.63
84 | C[C@@H](N)P(=O)(O)O [(S)-(+)-1-Aminoethylphosphonic acid] | 0.16
85 | Cc1ncc(COP(=O)(O)O)c(C=O)c1O [pyridoxal-5'-phosphate hydrate] | 0.39
86 | NCCc1c[nH]c2ccccc12 [3-(2-Aminoethyl)indole Hydrochloride] | 1.22
87 | C[C@H](N)C(=O)O [L-Alanine] | 0.17

Reference: the RepoRT retention time repository (doi:10.1093/pcp/pcn183)
